Activity calls are given as the source filed them.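 How the source made its calls: active means curve reaches 40% activation over neutral controls at an AC40 no higher than the top valid tested concentration; inconclusive means no clear call, values can overlap the other calls; inactive means signal moving opposite to the expected increase, and the rest.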
These molecules were tested on INS-1E GLuc insulin secretion reporter, luminescence, 2-3 h (assay: GLuc-reported insulin release enhancers, glucose-stimulated beta cells – cell-based, INS-1E, Gaussia luciferase, luminescence, cherry-pick, set 2, dose response (AID 977607)).
For COc1cc(/C=N/NC(=O)Nc2ccccc2)ccc1OCCOc1ccccc1C, the AC40 was 2.29 µM. With OC(CNCCc1ccc(C(F)(F)F)cc1)COc1cccc2ccccc12 (centres undefined) the AC40 was 4.54 µM. COc1ccc(C2CNC(=O)C2)cc1OC1CCCC1 (centres undefined) gave an AC40 of 1.98 µM. For CCc1ccc(-c2c(C)sc(NC(=O)C3CCC3)c2C#N)cc1, the AC40 was 5.78 µM. Molecule FC(F)(F)c1cc(CCN2CCNC[C@@H]2c2ccccc2)cc(C(F)(F)F)c1 has an AC40 of 6.96 µM. With O=C(O)c1ccc(-n2nnnc2SCc2ccccc2F)cc1 the AC40 was 0.0781 µM. Work on CCN(Cc1ccccc1)S(=O)(=O)c1ccc(C(=O)N(CCCN(C)C)c2nc3cc(C)cc(C)c3s2)cc1 yielded an AC40 of 17.4 µM. Work on COc1ccc(NC(=O)Cn2cnc3c(cnn3-c3ccc(C)c(C)c3)c2=O)c(OC)c1 yielded an AC40 of 5.6 µM. In the case of COc1cc2nc(N3CCN(c4cc(C)ccc4C)CC3)nc(N)c2cc1OC, the AC40 is reported as 8.44 µM. CCCCCc1cc(=O)oc2c(C(CCN3CCCC(C)C3)c3ccc(OC)cc3)c(OC)cc(OC)c12 (centres undefined) showed an AC40 of 12 µM. Work on CCNC(=O)NC(=O)C(C)OC(=O)c1oc2ccccc2c1CSC1CCCCC1 (centres undefined) yielded an AC40 of 5.51 µM. For COc1ccc(C(=O)Cc2ccc3c(c2)OCO3)c(O)c1, the AC40 was > 35 µM (inactive). In the case of O=C(CCN1CCOCC1)c1ccccc1, the AC40 is reported as 7.71 µM. Work on COc1ccc(CCNS(=O)(=O)c2cccc(C)c2)cc1OC yielded an AC40 of 2.46 µM. COc1cccc(CN2C[C@@H]3N[C@H](C2)C3c2ccc(-c3ccccc3OC)cc2)c1 (some centres undefined) was tested, and the AC40 was 7.9 µM. With CCCCNc1cc(Cl)nc(N)n1 the AC40 was 7.24 µM. Molecule Cc1cccc(-c2ccc(C3[C@@H]4CN(C(=O)Nc5ccc(C(F)(F)F)cc5)C[C@H]3N4)cc2)c1 (some centres undefined) has an AC40 of 1.09 µM. With O=C(COc1ccc2c(c1)OCO2)Nc1ccc2c(c1)oc1ccccc12 the AC40 was 16.4 µM. O=C(Cn1c(COc2ccccc2)nc2ccccc21)Nc1cc(Cl)cc(Cl)c1 gave an AC40 of 10.9 µM. In the case of COc1cc2cnc(-c3cccnc3)cc2cc1OC, the AC40 is reported as 6.19 µM. With c1ccc(-c2nnc3n2-c2ccccc2SC3)cc1 the AC40 was > 35 µM (inactive). CCN1CCN(Cc2ccc(NC(=O)c3cccc(-c4ccc5nc(NC(=O)C6CC6)sc5n4)c3)cc2C(F)(F)F)CC1 was tested, and the AC40 was 11.4 µM. For CCOc1ccc(CCNC(=O)Cn2ccc3ccccc3c2=O)cc1OCC, the AC40 was > 35 µM (inactive). In the case of CCOc1ncccc1C(=O)Nc1ccccc1F, the AC40 is reported as > 35 µM (inactive). Molecule NC(N)=N/N=C/c1ccc(OCc2ccccc2)c(OCc2ccccc2)c1 has an AC40 of 10.2 µM. In the case of NC[C@H](Cc1ccccc1)NCCc1cc(C(F)(F)F)cc(C(F)(F)F)c1, the AC40 is reported as 14.9 µM. COc1ccc(C2=NN(c3ccc(C(=O)O)cc3)C(c3ccc(OC)c(OC)c3)C2)cc1 (centres undefined) showed an AC40 of 4.29 µM. CCCc1nc2ccccc2c(=O)n1CC(=O)c1ccc(OC)cc1 gave an AC40 of 16.4 µM. Work on Cc1nc(N)c(C#N)c(-c2cccnc2)c1C yielded an AC40 of 14.2 µM. Nc1nc(N)c2cc(Sc3ccc(Cl)cc3)ccc2n1 showed an AC40 of 7.16 µM. Work on COc1ccc(C(=O)NC(=S)Nc2ccc3c4c(cccc24)CC3)cc1OC yielded an AC40 of 7.84 µM. In the case of CCOc1nc(NC(=O)NS(=O)(=O)c2cccc(Cl)c2)nc(-c2ccccc2)n1, the AC40 is reported as > 35 µM (inactive). With O=c1c2ccc(F)cc2sn1-c1ccccc1 the AC40 was 4.2 µM. Molecule COc1cc2c(cc1OC)[C@H](C)N(C(=O)NCc1ccccc1)CC2 has an AC40 of 8 µM. Work on CCc1c(C)sc(NC(=O)c2cc(-c3ccc(OC)c(OC)c3)on2)c1C#N yielded an AC40 of 9.5 µM. For CS(=O)(=O)c1cnc(-c2ccccc2)nc1Oc1ccc(F)cc1, the AC40 was 15.1 µM. Molecule NC(c1csc(NC(=O)Nc2cccc(C(F)(F)F)c2)n1)C1CCCCC1 (centres undefined) has an AC40 of 6.13 µM. CCCCc1c(-c2ccccc2OC)ncn1Cc1ccccc1C showed an AC40 of 10.4 µM. COc1ccc(C(CCNCc2ccc(OC(C)C)cc2)C(C)C)cc1 (centres undefined) showed an AC40 of 21.7 µM. In the case of O=C(N/N=C/c1ccc(Cl)cc1Cl)Nc1ccccc1, the AC40 is reported as 7.74 µM. Work on COc1ccc(C2=Nn3c(nnc3-c3ccccc3F)SC2)cc1OCC1CC1 yielded an AC40 of 1.23 µM. FC(F)(F)c1cc(CCN2CCNC[C@@H]2CC2CCCCC2)cc(C(F)(F)F)c1 showed an AC40 of 5.27 µM. With CC(C)(C)c1nc2ccc(Cl)cn2c1CC1CCCCC1 the AC40 was 16 µM. In the case of Cn1c(=O)oc2cc(S(=O)(=O)N3CCC(C(=O)Nc4ccc(OC(F)(F)F)cc4)CC3)ccc21, the AC40 is reported as 7.48 µM. Molecule CCOc1cccc(-c2csc(C3COc4ccccc4O3)n2)c1 (centres undefined) has an AC40 of 3.7 µM. Molecule CCOC(=O)c1c(C)n(-c2ccc(C)cc2)c2ccc(OCC(O)CN3CCN(C)CC3)cc12 (centres undefined) has an AC40 of 12.3 µM. COc1ccc(C2=NN(C(C)=O)C(c3cccs3)C2)cc1OC (centres undefined) gave an AC40 of 8.92 µM. Work on COc1ccc(-c2ccc(C3[C@@H]4CN(Cc5cccc(OC)c5)C[C@H]3N4)cc2)cc1 (some centres undefined) yielded an AC40 of 2.47 µM. CCOC(=O)c1oc2cc(O)cc(C)c2c1C gave an AC40 of 15.1 µM. Molecule CCC1OC(C2CC2)CC2=C1C(=O)OC(C)(C)O2 (centres undefined) has an AC40 of 4.79 µM. In the case of CC(C)C[C@H](NC(=O)c1[nH]cnc1C(=O)N[C@@H](C)c1ccccc1)C(=O)OC(C)(C)C, the AC40 is reported as 31.3 µM. For COC(=O)c1sccc1NC(=O)COc1ccc(Cl)cc1Cl, the AC40 was 9.33 µM. Work on O=C(NC1CCCCC1)C(c1ccc(F)cc1)N(Cc1ccccc1)C(=O)CN1C(=O)c2ccccc2S1(=O)=O (centres undefined) yielded an AC40 of 27.1 µM. COc1ccc(S(=O)(=O)N2CCc3ccccc32)cc1C(=O)Nc1ccc(C(N)=O)cc1 showed an AC40 of 16.3 µM. With O=C(Nc1ccc(F)cc1)Nc1cc(OCC(F)(F)F)cc(OCC(F)(F)F)c1 the AC40 was 7.63 µM. Molecule COc1ccc(OC)c(NC(=O)c2cc3c(Cl)nc4ccccc4c3s2)c1 has an AC40 of 10.2 µM. Molecule CC(=O)Nc1sc(N/N=C\c2cccc(Cl)c2)nc1-c1cccs1 has an AC40 of 6.6 µM. Molecule Cc1cc(C)c2oc(C(=O)Nc3ccc(S(=O)(=O)Nc4nccc(C)n4)cc3)cc(=O)c2c1 has an AC40 of 8.73 µM. COc1ccc(CCNC(=O)CCc2nc3ccccc3[nH]2)cc1OC gave an AC40 of 0.311 µM. Work on CC(C)CC#Cc1ccc2c(c1)O[C@@H](CN(C)Cc1cccc(F)c1)[C@H](C)CN([C@@H](C)CO)S2(=O)=O yielded an AC40 of 7.13 µM. CC(C)(C)c1ccc(OCC(=O)Nc2ccc(-c3nc4cccnc4o3)cc2)cc1 showed an AC40 of 9.2 µM. In the case of Cc1cc(Nc2ccc(Cl)cc2)nc(NCc2ccccc2)n1, the AC40 is reported as 9.24 µM. CCOC(=O)Cn1c(=NC(=O)c2nc3ccccc3s2)sc2cc(S(N)(=O)=O)ccc21 was tested, and the AC40 was 11.4 µM. Cc1ccc(/C=N/NC(=O)COc2ccccc2-c2ccccc2)cc1 gave an AC40 of 7.03 µM. N#Cc1ccc(-c2ccc([C@@H]3[C@H]4CNC[C@@H]3N4Cc3cc(F)ccc3F)cc2)cc1 was tested, and the AC40 was 16 µM. With COc1nc(-c2ccc(Cl)cc2)ccc1-c1noc(-c2ccco2)n1 the AC40 was 19.5 µM. COc1cc2c(cc1OC)-c1cc(Nc3ccccc3C)nc(=O)n1CC2 was tested, and the AC40 was 0.408 µM. In the case of O=S(=O)(Nc1ccc(-c2ccc3nncn3n2)cc1)c1ccccc1Cl, the AC40 is reported as 15.2 µM. O=C(O)c1ccc(/C=N/n2c(C3CCCCC3)n[nH]c2=S)cc1 was tested, and the AC40 was 5.87 µM. O=C(N/N=C\c1ccc(CNS(=O)(=O)c2ccc(Cl)cc2)o1)C(=O)Nc1ccc(Oc2ccccc2)cc1 gave an AC40 of 13.9 µM. For COc1ccc(CN2CCN(Cc3ccccc3F)CC2)cc1, the AC40 was > 35 µM (inactive). For O=C(NCC1OCCc2ccccc21)c1ccc(NC(=O)c2ccc(Cl)cc2)cc1 (centres undefined), the AC40 was 5.18 µM. In the case of CCCCCCN1C[C@H](n2cc(COC(=O)c3ccccc3)nn2)[C@@H](O)C[C@@H]1c1ccc(C)cc1, the AC40 is reported as 6.42 µM. COc1ccc(CCn2ccc(O)c(Cc3c(F)cccc3Cl)c2=O)cc1OC was tested, and the AC40 was 0.0544 µM. In the case of NC(N)=N/N=C/c1ccc(OCc2ccccc2Cl)cc1, the AC40 is reported as 16.4 µM. With CCCCCc1c(Cc2ccccc2)ncn1CCc1ccccc1OC the AC40 was 12.3 µM. C/C=C/c1ccc(C2[C@H]3CNC[C@@H]2N3Cc2cc(-c3ccccc3)on2)cc1 (some centres undefined) gave an AC40 of 9.74 µM. Fc1cccc(CN2C[C@@H]3N[C@H](C2)[C@@H]3c2ccc(-c3cccc(F)c3)cc2)c1 gave an AC40 of 3.93 µM. In the case of CC(C)CC#Cc1ccc2c(c1)O[C@H](CN(C)C(=O)C1CCCCC1)[C@@H](C)CN([C@@H](C)CO)S2(=O)=O, the AC40 is reported as 10.2 µM. With N#Cc1sc2nc(N3CCCCC3)c3c(c2c1N)CCCC3 the AC40 was 28.6 µM. For CCOC(=O)c1oc2ccccc2c1NC(=O)c1cccs1, the AC40 was 14 µM. For Cc1cc(C)nc(Nc2n[nH]c(COc3ccc4ccccc4c3)n2)n1, the AC40 was 7.71 µM. Molecule CC1CC1C(=O)Nc1cc(C(F)(F)F)ccc1N1CCOCC1 (centres undefined) has an AC40 of 1.46 µM. In the case of O=c1[nH]nc(-c2ccccc2)c2ccccc12, the AC40 is reported as 22.5 µM. With COc1ccc(-c2nc(CCl)cs2)cc1OC the AC40 was > 35 µM (inactive). For CCS(=O)(=O)Nc1ccc(-c2cc(-c3ccccc3)c3cc(C)ccc3n2)cc1, the AC40 was 6.45 µM. In the case of OC(CNCCc1ccc(C(F)(F)F)cc1)COC(c1ccccc1)c1ccccc1 (centres undefined), the AC40 is reported as 6.21 µM. Cc1ccc2nc(Cl)nc(-c3ccccc3)c2c1 gave an AC40 of 12.2 µM. With COc1ccc(C2=NN(C(=O)c3ccco3)C(c3cccs3)C2)cc1OC (centres undefined) the AC40 was 1.94 µM. COc1cc2c(cc1OC)/C(=C/C(=O)c1ccc(NC(C)=O)cc1)NCC2 gave an AC40 of 14.6 µM. For CC(C)CSc1nc2c(c(=O)[nH]c(=O)n2C)n1CCc1ccccc1, the AC40 was 8.81 µM. Work on Cc1ccc(C(C)C)c(OCCNCCc2ccccc2)c1 yielded an AC40 of 15 µM. With Fc1cccc(CN2C[C@@H]3N[C@H](C2)C3c2ccc(/C=C/c3ccccc3)cc2)c1 (some centres undefined) the AC40 was 11.4 µM. CC(C)Nc1nc(NC(C)(C)C)nc(Oc2ccc(=O)n(C)n2)n1 showed an AC40 of 29.2 µM. With CN(C)Cc1ccccc1Sc1ccc2c(c1)CCCC2 the AC40 was 16.6 µM. Cc1ccc(-c2n[nH]c(=S)n2/N=C/c2c(C)nn(-c3ccccc3)c2C)cc1 gave an AC40 of 11.2 µM. Molecule Cc1nn(Cc2ccc(Cl)cc2Cl)c(Cl)c1C(=O)Nc1ccc(OC(F)F)cc1 has an AC40 of 6.5 µM. Work on Cc1cc(Cl)ccc1Oc1nc(-c2ccccc2)ncc1S(C)(=O)=O yielded an AC40 of 4.28 µM. O=C1c2cccnc2C(Nc2cccc(F)c2)N1Cc1ccco1 (centres undefined) was tested, and the AC40 was 28.5 µM. Molecule COc1ccc(C(=O)Nc2ccccc2C(=O)Nc2ccncc2)cc1 has an AC40 of 0.413 µM. O=C(Nc1ccc(C(F)(F)F)cc1)N1[C@@H]2CNC[C@H]1C2c1ccc(/C=C/c2ccccc2)cc1 (some centres undefined) gave an AC40 of 9.53 µM. CCOC(=O)c1cnc2c(Cl)c(Cl)ccc2c1NCCN1CCOCC1 was tested, and the AC40 was > 35 µM (inactive). CCn1c(SCc2cc(=O)[nH]c3ccccc23)nc2c1c(=O)n(C)c(=O)n2C showed an AC40 of 1.42 µM. With CN(C)CCNC(=O)c1cc2c(s1)-c1ccc(Cl)cc1SC2 the AC40 was 6.54 µM. CC(C)Nc1nc(Nc2ccc(C(N)=O)cc2)c2sccc2n1 was tested, and the AC40 was 9.89 µM. OC(c1ccccc1)(c1ccccc1)C1CCN(CCCOc2ccc(-c3ccc(F)cc3F)cc2)CC1 gave an AC40 of 3.89 µM. With O=c1c2ccccc2sn1-c1ccccc1F the AC40 was 3.87 µM. Work on CCCCCCCCN1C(=O)[C@@H](CC(=O)N2CCN(C(=O)c3ccco3)CC2)C[C@@]2(C(=O)OC)C1=C[C@H](C1CCCC1)O[C@@H]2C yielded an AC40 of 12 µM. In the case of CC1(C(=O)NS(=O)(=O)c2ccc(C#N)cc2)CCN1C(=O)C1(c2ccccc2)CCCC1 (centres undefined), the AC40 is reported as > 35 µM (inactive).

Reference: PubChem BioAssay AID977607 (Broad Institute, 2014)
